Data as given in ChEMBL document CHEMBL1201862, “PubChem BioAssay data set” (2004).
Activity calls are given as the source filed them.

Experiments:
Cytochrome P450 2C9 = Cytochrome P450 2C9 (Homo sapiens, UniProt P11712)
Beta-galactosidase = Beta-galactosidase (Escherichia coli, UniProt Q8VNN2); test: detection-enzyme interference by beta-gal modulators – biochemical, E. coli enzyme, set 3, artefact control for CCR6 antagonist project, dose response (AID 504712); format: functional
[1] = bead-based luminescence quenchers, dual-tagged ARNT – biochemical, AlphaScreen, cherry-pick, artefact control for ARNT-TACC3 interaction inhibitor project, dose response (AID 651705); format: functional;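 also: AlphaScreen bead proximity signal that flags compounds interfering with the detection technology; potency reflects signal decrease which marks the compound as an assay artifact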
Nonstructural protein 1 = Nonstructural protein 1 (Influenza A virus, UniProt Q194T2); format: functional, Influenza A virus (A/California/07/2009(H1N1))
[2] = target: Melanin-concentrating hormone receptor 1 (Homo sapiens, UniProt Q99705); test: Fluorescence-based counterscreen for antagonists of the G-protein coupled receptor 7 (GPR7): cell-based high throughput dose response assay to identify antagonists of the melanin-concentrating hormone receptor 1 (MCHR1).; format: functional
Melanin-concentrating hormone receptor 1, sequence (Q99705 whole entry): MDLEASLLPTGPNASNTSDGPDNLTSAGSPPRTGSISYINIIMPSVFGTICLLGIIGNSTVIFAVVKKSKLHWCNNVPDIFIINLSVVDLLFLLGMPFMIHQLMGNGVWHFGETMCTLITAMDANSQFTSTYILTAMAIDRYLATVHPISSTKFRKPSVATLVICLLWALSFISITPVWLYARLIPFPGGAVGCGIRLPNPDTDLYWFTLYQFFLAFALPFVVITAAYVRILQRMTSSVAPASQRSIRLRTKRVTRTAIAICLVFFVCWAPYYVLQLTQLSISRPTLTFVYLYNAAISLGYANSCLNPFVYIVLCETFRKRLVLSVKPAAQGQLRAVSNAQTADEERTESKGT

[3] = target: T1, Neuropeptides B/W receptor type 1 (Homo sapiens, UniProt P48145); test: Fluorescence-based dose response cell-based high throughput screening assay to identify antagonists of the G-protein coupled receptor 7 (GPR7). [Related pubchem assays: 1952 (Screening assay (GPR7 antagonists).), 1880 (Summary AID.)]; format: functional
T1 sequence (P48145 whole entry): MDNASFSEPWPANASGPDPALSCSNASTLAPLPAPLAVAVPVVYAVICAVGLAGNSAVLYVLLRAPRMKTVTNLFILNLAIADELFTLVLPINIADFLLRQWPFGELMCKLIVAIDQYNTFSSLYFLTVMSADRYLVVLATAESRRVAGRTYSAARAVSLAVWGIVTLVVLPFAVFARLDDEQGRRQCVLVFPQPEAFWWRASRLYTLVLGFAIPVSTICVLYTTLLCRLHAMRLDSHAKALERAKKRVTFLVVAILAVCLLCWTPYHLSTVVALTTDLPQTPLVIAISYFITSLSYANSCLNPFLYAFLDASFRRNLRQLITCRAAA

[4] = target: T2, Microphthalmia-associated transcription factor (Homo sapiens, UniProt O75030); test: reducers of TRPM1 reporter luminescence, concentration series – cell-based, SK-MEL-5, cherry-picked, set 3, MITF inhibitor project, dose response (AID 493073); format: functional;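 also: SK-MEL-5 melanoma cells with luciferase driven by the MITF target TRPM1 promoter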
T2 sequence (O75030 whole entry): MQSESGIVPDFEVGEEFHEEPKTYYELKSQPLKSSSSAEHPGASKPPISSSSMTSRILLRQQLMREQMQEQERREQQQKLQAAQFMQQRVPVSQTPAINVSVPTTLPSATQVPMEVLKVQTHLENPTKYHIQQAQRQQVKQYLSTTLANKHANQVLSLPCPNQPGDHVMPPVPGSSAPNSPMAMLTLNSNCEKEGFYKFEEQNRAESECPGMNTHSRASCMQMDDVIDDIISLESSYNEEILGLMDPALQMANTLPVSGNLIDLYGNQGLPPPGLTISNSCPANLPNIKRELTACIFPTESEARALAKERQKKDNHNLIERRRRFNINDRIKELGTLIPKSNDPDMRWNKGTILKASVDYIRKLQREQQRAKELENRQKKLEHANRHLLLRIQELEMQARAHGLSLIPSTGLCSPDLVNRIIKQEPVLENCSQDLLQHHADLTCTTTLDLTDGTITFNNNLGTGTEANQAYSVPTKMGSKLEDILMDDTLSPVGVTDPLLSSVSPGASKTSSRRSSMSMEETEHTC

H9c2 = test: cells; format: functional, cell-based; details: Rattus norvegicus, H9c2, Myocardium
[5] = target: DNA dC->dU-editing enzyme APOBEC-3G (Homo sapiens, UniProt Q9HC16); test: Dose Response confirmation of small molecule APOBEC3G DNA Deaminase Inhibitors via a fluorescence-based single-stranded DNA deaminase assay. [Related pubchem assays (depositor defined):AID493012, AID493028]; format: functional
DNA dC->dU-editing enzyme APOBEC-3G, sequence (Q9HC16 whole entry): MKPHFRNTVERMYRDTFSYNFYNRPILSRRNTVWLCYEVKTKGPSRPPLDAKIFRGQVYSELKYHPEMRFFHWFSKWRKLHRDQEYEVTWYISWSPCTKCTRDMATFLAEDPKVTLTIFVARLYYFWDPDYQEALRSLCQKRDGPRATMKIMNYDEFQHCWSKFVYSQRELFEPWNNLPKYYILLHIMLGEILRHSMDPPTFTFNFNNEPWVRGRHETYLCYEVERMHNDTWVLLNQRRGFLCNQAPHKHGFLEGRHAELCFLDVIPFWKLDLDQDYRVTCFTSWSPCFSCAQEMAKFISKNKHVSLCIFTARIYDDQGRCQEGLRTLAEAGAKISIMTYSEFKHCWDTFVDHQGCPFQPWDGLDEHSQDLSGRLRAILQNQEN

Troponin, cardiac muscle = Troponin, cardiac muscle (Homo sapiens, UniProt P19429+P45379+P63316); test: Fluorescence-based biochemical high throughput dose response assay for activators of the calcium sensitivity of cardiac Regulated Thin Filaments (RTF). [Related pubchem assays (depositor defined):AID493008, AID493018, AID504382, AID504383]; format: protein-complex assay
[6] = target: T3, Voltage-gated N-type calcium channel alpha-1B subunit/Amyloid beta A4 precursor protein-binding family A member 1 (Homo sapiens, UniProt Q00975+Q02410); format: protein assay
T3 sequence (Q00975 whole entry): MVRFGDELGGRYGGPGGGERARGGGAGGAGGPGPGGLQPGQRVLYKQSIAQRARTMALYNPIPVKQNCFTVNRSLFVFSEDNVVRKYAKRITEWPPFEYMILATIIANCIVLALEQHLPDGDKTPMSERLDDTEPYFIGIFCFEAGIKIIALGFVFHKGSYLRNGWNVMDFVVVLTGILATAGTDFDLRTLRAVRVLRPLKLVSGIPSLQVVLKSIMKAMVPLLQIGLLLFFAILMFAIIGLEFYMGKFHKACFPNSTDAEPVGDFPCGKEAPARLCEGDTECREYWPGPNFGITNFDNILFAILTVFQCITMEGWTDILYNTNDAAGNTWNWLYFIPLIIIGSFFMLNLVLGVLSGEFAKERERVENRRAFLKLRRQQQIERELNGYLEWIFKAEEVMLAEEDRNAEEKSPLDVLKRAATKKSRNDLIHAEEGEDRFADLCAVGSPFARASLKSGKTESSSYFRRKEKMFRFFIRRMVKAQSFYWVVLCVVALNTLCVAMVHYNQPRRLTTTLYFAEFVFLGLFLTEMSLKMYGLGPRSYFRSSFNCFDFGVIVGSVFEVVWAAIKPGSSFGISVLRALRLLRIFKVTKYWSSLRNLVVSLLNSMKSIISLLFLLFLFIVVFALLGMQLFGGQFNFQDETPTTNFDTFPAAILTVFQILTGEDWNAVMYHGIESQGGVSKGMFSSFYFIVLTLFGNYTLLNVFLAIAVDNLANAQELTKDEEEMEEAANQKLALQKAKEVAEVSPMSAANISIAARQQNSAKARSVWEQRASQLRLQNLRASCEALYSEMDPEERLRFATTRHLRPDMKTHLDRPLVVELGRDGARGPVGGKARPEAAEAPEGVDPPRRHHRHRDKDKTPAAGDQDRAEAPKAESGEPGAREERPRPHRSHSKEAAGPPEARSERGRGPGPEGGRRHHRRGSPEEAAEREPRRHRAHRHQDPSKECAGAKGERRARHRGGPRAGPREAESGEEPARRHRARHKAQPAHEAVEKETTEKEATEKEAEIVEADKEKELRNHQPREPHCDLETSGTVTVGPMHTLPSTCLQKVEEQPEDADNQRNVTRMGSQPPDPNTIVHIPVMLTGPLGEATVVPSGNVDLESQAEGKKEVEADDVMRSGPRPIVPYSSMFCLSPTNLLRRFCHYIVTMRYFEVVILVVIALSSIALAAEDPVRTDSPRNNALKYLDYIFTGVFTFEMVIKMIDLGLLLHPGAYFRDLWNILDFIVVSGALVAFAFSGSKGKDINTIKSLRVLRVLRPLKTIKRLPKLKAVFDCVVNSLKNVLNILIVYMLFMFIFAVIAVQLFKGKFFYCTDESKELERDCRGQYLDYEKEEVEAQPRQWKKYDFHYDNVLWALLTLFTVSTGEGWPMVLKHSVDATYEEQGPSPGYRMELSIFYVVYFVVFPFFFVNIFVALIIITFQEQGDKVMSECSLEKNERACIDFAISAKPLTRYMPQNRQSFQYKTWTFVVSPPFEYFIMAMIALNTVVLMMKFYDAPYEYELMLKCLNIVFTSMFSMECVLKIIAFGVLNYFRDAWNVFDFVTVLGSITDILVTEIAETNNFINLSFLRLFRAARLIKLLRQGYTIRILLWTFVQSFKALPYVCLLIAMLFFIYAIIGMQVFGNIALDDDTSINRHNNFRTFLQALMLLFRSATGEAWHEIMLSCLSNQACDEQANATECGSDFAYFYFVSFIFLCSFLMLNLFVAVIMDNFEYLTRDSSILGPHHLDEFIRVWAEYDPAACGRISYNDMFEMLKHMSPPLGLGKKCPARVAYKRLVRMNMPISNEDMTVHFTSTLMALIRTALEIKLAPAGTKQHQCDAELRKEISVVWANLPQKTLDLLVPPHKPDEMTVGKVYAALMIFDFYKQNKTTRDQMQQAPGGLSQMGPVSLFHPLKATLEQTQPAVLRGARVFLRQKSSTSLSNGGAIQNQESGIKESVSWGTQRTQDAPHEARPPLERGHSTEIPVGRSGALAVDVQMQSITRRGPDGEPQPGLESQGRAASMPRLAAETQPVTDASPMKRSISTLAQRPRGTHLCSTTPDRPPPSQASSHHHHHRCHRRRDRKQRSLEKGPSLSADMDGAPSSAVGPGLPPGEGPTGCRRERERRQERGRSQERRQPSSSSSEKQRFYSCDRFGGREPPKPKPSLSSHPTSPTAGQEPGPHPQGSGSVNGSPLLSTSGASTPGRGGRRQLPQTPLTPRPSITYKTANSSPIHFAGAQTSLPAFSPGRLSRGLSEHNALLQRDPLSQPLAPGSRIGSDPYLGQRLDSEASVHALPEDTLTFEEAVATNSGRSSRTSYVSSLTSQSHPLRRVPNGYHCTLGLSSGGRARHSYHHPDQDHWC
T3 sequence (Q02410 whole entry): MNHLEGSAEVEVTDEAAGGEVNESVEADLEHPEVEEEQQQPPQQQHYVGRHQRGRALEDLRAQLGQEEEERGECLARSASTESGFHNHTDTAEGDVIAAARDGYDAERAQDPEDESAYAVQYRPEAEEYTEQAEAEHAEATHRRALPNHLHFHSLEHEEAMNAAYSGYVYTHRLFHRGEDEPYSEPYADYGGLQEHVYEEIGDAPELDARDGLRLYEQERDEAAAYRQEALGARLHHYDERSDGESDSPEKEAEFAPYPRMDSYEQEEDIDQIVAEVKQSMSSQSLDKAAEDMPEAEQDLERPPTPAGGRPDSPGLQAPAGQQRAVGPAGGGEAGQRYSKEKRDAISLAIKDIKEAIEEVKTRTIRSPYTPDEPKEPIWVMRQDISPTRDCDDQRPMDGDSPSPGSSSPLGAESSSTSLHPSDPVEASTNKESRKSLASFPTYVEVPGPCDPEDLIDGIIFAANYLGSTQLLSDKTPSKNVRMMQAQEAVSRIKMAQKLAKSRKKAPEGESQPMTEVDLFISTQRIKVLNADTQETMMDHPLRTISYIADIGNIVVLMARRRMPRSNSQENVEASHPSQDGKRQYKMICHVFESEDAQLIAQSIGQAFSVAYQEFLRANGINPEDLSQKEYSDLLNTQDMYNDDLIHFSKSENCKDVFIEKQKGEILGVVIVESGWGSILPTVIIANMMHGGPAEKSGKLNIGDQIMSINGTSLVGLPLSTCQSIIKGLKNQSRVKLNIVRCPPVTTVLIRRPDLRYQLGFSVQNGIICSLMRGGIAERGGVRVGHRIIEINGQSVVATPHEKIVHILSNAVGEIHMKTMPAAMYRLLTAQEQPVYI

[7] = target: T3, Voltage-gated N-type calcium channel alpha-1B subunit/Amyloid beta A4 precursor protein-binding family A member 1; format: protein assay; remark: listed apart in the source
[8] = Luminescence Cell-Based Dose Response HTS to Identify Activators of Luciferase Translation or Activity in H4 […] Cells. [Related pubchem assays: 1829 (Project Summary), 1814 (Primary HTS)]; format: functional
H4 = test: Luminescence Cell-Based Dose Response HTS to Identify Activators of 5'UTR Stem-Loop Driven Prion Protein mRNA Translation in H4 Neuroglioblastoma Cells. [Related pubchem assays: 1829 (Project Summary), 1814 (Primary HTS)]; format: functional; details: Homo sapiens
[9] = target: T4, RNA-binding protein pos-1 (Caenorhabditis elegans, UniProt G5EF15); test: disruptors of C. elegans POS-1 RNA interaction – biochemical, fluorescence polarization, dose response (AID 1964);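 also: purified POS-1 fused to maltose binding protein made in E. coli; potency of compounds blocking POS-1 binding to fluorescent RNA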
T4 sequence (G5EF15 whole entry): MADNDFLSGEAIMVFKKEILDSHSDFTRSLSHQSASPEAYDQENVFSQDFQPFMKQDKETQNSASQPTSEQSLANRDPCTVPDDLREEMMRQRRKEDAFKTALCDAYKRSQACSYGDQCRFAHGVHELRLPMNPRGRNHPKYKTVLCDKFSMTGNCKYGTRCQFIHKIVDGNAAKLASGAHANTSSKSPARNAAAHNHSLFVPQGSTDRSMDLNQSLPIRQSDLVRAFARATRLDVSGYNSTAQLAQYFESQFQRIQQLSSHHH

[10] = Luminescence Cell-Based Dose Confirmation HTS to Identify Activators of 5'UTR Stem-Loop Driven Alpha-Synuclein mRNA Translation in H4 Neuroglioblastoma Cells. [Related pubchem assays: 1829 (Project Summary), 1814 (Primary HTS)]; format: functional
[11] = target: T5, Zinc finger protein mex-5 (Caenorhabditis elegans, UniProt Q9XUB2); test: potency of MEX-5 RNA-binding blockers – biochemical, C. elegans, fluorescence polarization, dose response (AID 1960)
T5 sequence (Q9XUB2 whole entry): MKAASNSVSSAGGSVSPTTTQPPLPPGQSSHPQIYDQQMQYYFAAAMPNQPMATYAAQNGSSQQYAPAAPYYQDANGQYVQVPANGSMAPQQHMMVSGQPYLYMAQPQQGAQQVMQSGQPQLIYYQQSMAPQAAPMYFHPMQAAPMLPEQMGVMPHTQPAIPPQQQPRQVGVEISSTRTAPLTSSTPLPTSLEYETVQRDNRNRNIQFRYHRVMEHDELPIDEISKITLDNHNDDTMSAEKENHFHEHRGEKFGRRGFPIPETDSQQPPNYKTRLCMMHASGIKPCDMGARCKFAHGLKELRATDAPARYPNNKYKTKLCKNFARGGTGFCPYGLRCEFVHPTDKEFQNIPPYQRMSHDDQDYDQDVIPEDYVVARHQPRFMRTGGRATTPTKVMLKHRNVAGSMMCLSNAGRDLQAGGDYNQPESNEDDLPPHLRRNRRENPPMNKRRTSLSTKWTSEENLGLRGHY

[12] = alpha-synuclein stem-loop luciferase translation blockers – H4 neuroglioma cells, luminescence, confirmation (AID 1988); format: functional, cell-based
[13] = luciferase reporter signal suppression in cells – H4 neuroglioma cells, luminescence, dose response (AID 1990); format: functional, cell-based
[14] = Luminescence Cell-Based Dose Response HTS to Identify Inhibitors of 5'UTR Stem-Loop Driven Prion Protein mRNA Translation in H4 Neuroglioblastoma Cells. [Related pubchem assays: 1827 (Project Summary), 1813 (Primary HTS)]; format: functional
[15] = target: T6, Carboxy-terminal domain RNA polymerase II polypeptide A small phosphatase 1 (Homo sapiens, UniProt Q9GZU7); test: CTDSP1 inhibitors, concentration-response, biochemical, absorbance readout, ultra-high-throughput screen actives (AID 540297); format: functional
T6 sequence (Q9GZU7 whole entry): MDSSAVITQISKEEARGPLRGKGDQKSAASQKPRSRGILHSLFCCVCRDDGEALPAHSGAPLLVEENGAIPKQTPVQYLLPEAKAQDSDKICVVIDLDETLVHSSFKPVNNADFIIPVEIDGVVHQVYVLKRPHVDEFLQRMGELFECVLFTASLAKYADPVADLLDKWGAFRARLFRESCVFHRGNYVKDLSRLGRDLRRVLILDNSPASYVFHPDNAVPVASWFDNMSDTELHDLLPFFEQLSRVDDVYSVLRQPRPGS

Cytochrome P450 3A4 = Cytochrome P450 3A4 (Homo sapiens, UniProt P08684); details: Potency;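 also: confirmatory qHTS run detecting inhibitors and substrates of CYP3A4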
[16] = HEK-293T viability loss after treatment – luminescence, T-cell screen hits, cytotoxicity control for TCR NF-kB inhibitor project, dose response (AID 489026); format: functional, cell-based;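 also: cells exposed to compound about 14 hours before the viability readout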
INS1 = test: INS-1E survival protection against cytokine death – cell-based, luminescence, retest, dose response (AID 449756); format: functional; details: Rattus norvegicus;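 also: cell death triggered by IL-1 beta plus TNF-alpha plus IFN-gamma mixture; protective hits raise ATP signal compared with cytokine alone wells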
[17] = target: Heat shock protein HSP 90-alpha (Homo sapiens, UniProt P07900); format: functional, organism-based

Beta-galactosidase, sequence (Q8VNN2 whole entry): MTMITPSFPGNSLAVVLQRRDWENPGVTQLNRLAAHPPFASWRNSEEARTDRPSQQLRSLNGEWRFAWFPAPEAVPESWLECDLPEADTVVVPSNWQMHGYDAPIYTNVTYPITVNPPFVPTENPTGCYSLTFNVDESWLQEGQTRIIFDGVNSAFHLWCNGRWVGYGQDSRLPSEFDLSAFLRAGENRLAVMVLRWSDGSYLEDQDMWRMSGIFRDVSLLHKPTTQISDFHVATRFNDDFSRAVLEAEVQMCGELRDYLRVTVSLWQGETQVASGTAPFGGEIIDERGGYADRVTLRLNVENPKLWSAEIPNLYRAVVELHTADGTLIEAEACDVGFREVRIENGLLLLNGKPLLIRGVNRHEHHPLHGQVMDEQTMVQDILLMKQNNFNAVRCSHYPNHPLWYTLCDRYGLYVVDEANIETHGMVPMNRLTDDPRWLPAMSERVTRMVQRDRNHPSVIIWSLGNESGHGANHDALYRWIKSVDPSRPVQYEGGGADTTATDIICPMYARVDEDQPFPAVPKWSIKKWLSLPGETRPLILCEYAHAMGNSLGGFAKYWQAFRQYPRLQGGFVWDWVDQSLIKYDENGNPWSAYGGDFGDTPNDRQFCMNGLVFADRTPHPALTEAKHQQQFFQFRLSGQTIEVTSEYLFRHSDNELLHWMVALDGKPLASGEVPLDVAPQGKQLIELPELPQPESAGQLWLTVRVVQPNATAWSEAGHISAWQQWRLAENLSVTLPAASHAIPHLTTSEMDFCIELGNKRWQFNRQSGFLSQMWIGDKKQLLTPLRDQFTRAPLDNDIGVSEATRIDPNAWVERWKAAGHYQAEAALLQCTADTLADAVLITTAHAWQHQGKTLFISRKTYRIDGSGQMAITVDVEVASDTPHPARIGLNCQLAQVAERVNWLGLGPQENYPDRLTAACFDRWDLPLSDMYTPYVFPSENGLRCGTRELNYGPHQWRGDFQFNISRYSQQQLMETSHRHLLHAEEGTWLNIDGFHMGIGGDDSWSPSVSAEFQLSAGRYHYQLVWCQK

## Cc1cc(C)cc(N2C(=O)CC(Sc3nnnn3-c3ccccc3)C2=O)c1 (configuration not stated)
Cytochrome P450 2C9
  AC50: inconclusive
Beta-galactosidase
  IC50: > 66.6 µM (inactive)

## C/C(=N\NC(=O)C1CCCN(S(=O)(=O)c2ccccc2)C1)c1ccccn1 (configuration not stated)
[1]
  AC50: 77.8 µM (active)
Nonstructural protein 1
  IC50: 22.2 µM (active)
Beta-galactosidase
  IC50: > 66.6 µM (inactive)

## CCOC(=O)CSc1nnc(-c2ccc(S(=O)(=O)NCc3cccs3)cc2)o1
[2]
  IC50: > 43.8 µM (not active)
[3]
  IC50: > 43.8 µM (not active)

## CC(Oc1ccccc1)C(=O)Nc1nc(-c2ccccn2)cs1 (configuration not stated)
[1]
  AC50: 84.7 µM (active)
Beta-galactosidase
  IC50: > 66.6 µM (inactive)
[4]
  AC50: 14 µM (active)
H9c2
  IC50: > 79 µM (inactive)

## CC(Sc1ccc2nnc(-c3ccc(F)cc3)n2n1)C(=O)O (configuration not stated)
[5]
  IC50: 21 µM (active)

## O=[N+]([O-])c1ccc(N2CCN(Cc3ccccc3)CC2)nc1
[2]
  IC50: 22.8 µM (not active)
[3]
  IC50: 33.4 µM (not active)

## C=COc1ccc(N2C(=O)c3ccccc3OC2C)cc1 (configuration not stated)
Troponin, cardiac muscle
  EC50: > 71.4 µM (inactive)

## N#CC1=C2SCN(c3ccc(F)cc3)CN2C(=O)CC1c1cccc(F)c1 (configuration not stated)
[6]
  IC50: 1.59 µM (active)
[7]
  IC50: > 50 µM (inactive)

## Cc1cc(/C=C2\SC(=S)N(Cc3ccco3)C2=O)c(C)n1-c1cccnc1
Troponin, cardiac muscle
  EC50: > 2.65 µM (active)
[8]
  EC50: 119 µM (active)
H4
  EC50: 3.71 µM (active)
[9]
  EC50: 11.3 µM (inconclusive)
[10]
  EC50: 45.2 µM (active)
[11]
  EC50: 20.2 µM (inconclusive)

## O=C(c1ccc2c(c1)OCO2)N(CC1CCCO1)C1(C(=O)NC2CCCC2)CCCCC1 (configuration not stated)
[2]
  IC50: > 43.8 µM (not active)
[3]
  IC50: > 43.8 µM (not active)

## COc1ccccc1NS(=O)(=O)c1cc(NC(=O)c2ccncc2)ccc1N1CCCC1
[6]
  IC50: 29 µM (active)
[7]
  IC50: > 50 µM (inactive)

## CCCN(CCC)CCOc1cc(C)ccc1C(C)C
[12]
  EC50: > 120 µM (not active)
[13]
  EC50: > 120 µM (not active)
[2]
  IC50: 6.6 µM (active)
[3]
  IC50: 10.9 µM (not active)
[14]
  EC50: > 120 µM (not active)

## CC(/C=C/c1ccco1)=N\NC(=O)c1cccnc1
[15]
  IC50: 21.3 µM (active)
[6]
  IC50: 9.19 µM (active)
[7]
  IC50: 17.8 µM (active)

## CC(=O)c1ccc(NC(=O)c2ccc(NC(=O)c3ccco3)cc2)cc1
[5]
  IC50: 25.3 µM (active)

## COc1ccc(-c2oc3cc(O[C@@H]4OC(CO)C(O)C(O)C4O)c(OC)c(O)c3c(=O)c2OC)cc1O (some centres not stated)
Cytochrome P450 3A4
  AC50: 25.1 µM (inconclusive)

## COc1ccc2nc(C)c3cc(C)oc3c2c1
Troponin, cardiac muscle
  EC50: > 71.4 µM (inactive)

## Cc1ccc(O)c(N=Nc2nccs2)c1
[16]
  IC50: > 80 µM (inactive)
INS1
  AC50: 1.15 µM (active)
Beta-galactosidase
  IC50: > 66.6 µM (inactive)
[17]
  AC50: 2.1 µM (active)
